Measured values published in patent US20090226398A1, “ANTI-VIRAL COMPOUNDS, COMPOSITIONS, AND METHODS OF USE” (Genelabs Technologies, Inc., priority 2008, published 2009).

What follows are compounds tested on HCV replication (assay: Replicon Assay (Huh-lucubineo-ET cells, luciferase readout)). Conditions: Hepatitis C virus; ET (Huh-lucubineo-ET) HCV replicon cell line; luciferase activity 48-72 hours after compound addition; 6 dilutions.
Assay type: cell-based
Procedure: A cell line, ET (Huh-lucubineo-ET) was used for screening of compounds of the present invention for inhibition of HCV replication. The ET cell line was stably transfected with RNA transcripts harboring a I389luc-ubi-neo/NS3-3′/ET; replicon with firefly luciferase-ubiquitin-neomycin phosphotransferase fusion protein and EMCV-IRES driven NS3-5B polyprotein containing the cell culture adaptive mutations (E1202G; T1280I; K1846T) (Krieger at al, 2001 and unpublished). The ET cells were grown in DMEM, supplemented with 10% fetal calf serum, 2 mM Glutamine, Penicillin (100 IU/mL)/Streptomycin (100 μg/mL), 1× nonessential amino acids, and 250 μg/mL G418 (“Geneticin”). They were all available through Life Technologies (Bethesda, Md.). The cells were plated at 0.5−1.0×10^4 cells/well in the 96 well plates and incubated for 24 hrs before adding the test compounds. The compounds were then added to the cells to achieve a final concentration of 5 or 50 μM. Luciferase activity was measured 48-72 hours later by adding a lysis buffer and the substrate (Catalog number Glo-lysis buffer E2661 and Bright-Glo luciferase system E2620 Promega, Madison, Wis.). Cells should not be too confluent during the assay. Percent inhibition of replication was plotted relative to no compound control. For EC50 (effective concentration at which 50% of the maximum inhibition is observed) determinations, 6 dilutions of each compound were used. Compounds were typically diluted 3 fold to span a concentration range of 250 fold. EC50 and similarly TC50 values were calculated by fitting % inhibition at each concentration to the following equation:
% inhibition=100%/[(EC50/[I])^b+1]
where b is Hill's coefficient.

Row | SMILES | EC50
1 | Fc1cccc(-c2ccc(Cn3cc4nc(-c5cccc(F)c5F)nc-4cn3)nn2)c1 [Compound 222, 2-(2,3-Difluoro-phenyl)-5-[6-(3-fluoro-phenyl)-pyridazin-3-ylmethyl]-5H-imidazo[4,5-d]pyridazine] | ≥ 50000 nM
2 | CCCCOc1ccc(-c2ccc(Cn3cc4nc(-c5cccc(F)c5F)nc-4cn3)nn2)cc1 [Compound 223, 5-[6-(4-Butoxy-phenyl)-pyridazin-3-ylmethyl]-2-(2,3-difluoro-phenyl)-5H-imidazo[4,5-d]pyridazine] | 49000 nM
3 | COc1ccc(-c2ccc(Cn3cc4nc(-c5cccc(F)c5F)nc-4cn3)c(C)n2)c(C(F)(F)F)c1 [Compound 224, 2-(2,3-Difluoro-phenyl)-5-[6-(4-methoxy-2-trifluoromethyl-phenyl)-2-methyl-pyridin-3-ylmethyl]-5H-imidazo[4,5-d]pyridazine] | 281 nM
4 | Fc1cccc(-c2nc3cnn(Cc4ccc(-c5ccc(C(F)(F)F)cc5)cc4)cc-3n2)c1F [Compound 225, 2-(2,3-Difluoro-phenyl)-5-(4′-trifluoromethyl-biphenyl-4-ylmethyl)-5H-imidazo[4,5-d]pyridazine] | 13700 nM
5 | CCCOc1ccc(-c2ccc(Cn3cc4nc(-c5cccc(F)c5F)nc-4cn3)nn2)c(C(F)(F)F)c1 [Compound 226, 2-(2,3-Difluoro-phenyl)-5-[6-(4-propoxy-2-trifluoromethyl-phenyl)-pyridazin-3-ylmethyl]-5H-imidazo[4,5-d]pyridazine] | 4 nM
6 | Cc1ccc(-c2ccc(Cn3cc4nc(-c5cccc(F)c5F)nc-4cn3)nn2)c(Cl)c1 [Compound 227, 5-[6-(2-Chloro-4-methyl-phenyl)-pyridazin-3-ylmethyl]-2-(2,3-difluoro-phenyl)-5H-imidazo[4,5-d]pyridazine] | 97 nM
7 | COc1ccc(-c2ccc(Cn3cc4nc(-c5cccc(F)c5F)nc-4cn3)nn2)c(Cl)c1 [Compound 228, 5-[6-(2-Chloro-4-methoxy-phenyl)-pyridazin-3-ylmethyl]-2-(2,3-difluoro-phenyl)-5H-imidazo[4,5-d]pyridazine] | 112 nM
8 | Fc1cccc(-c2nc3cnn(Cc4ccc(-c5ccc(OC(F)(F)F)cc5)cc4)cc-3n2)c1F [Compound 229, 2-(2,3-Difluoro-phenyl)-5-(4′-trifluoromethoxy-biphenyl-4-ylmethyl)-5H-imidazo[4,5-d]pyridazine] | 8380 nM
9 | Fc1cc(C(F)(F)F)ccc1-c1ccc(Cn2cc3nc(-c4cccc(F)c4F)nc-3cn2)cc1 [Compound 230, 2-(2,3-Difluoro-phenyl)-5-(2′-fluoro-4′-trifluoromethyl-biphenyl-4-ylmethyl)-5H-imidazo[4,5-d]pyridazine] | 3140 nM
10 | CC(F)(F)COc1ccc(-c2ccc(Cn3cc4nc(-c5cccc(F)c5F)nc-4cn3)nn2)c(C(F)(F)F)c1 [Compound 231, 2-(2,3-Difluoro-phenyl)-5-{6-[4-(2,2-difluoro-propoxy)-2-trifluoromethyl-phenyl]-pyridazin-3-ylmethyl}-5H-imidazo[4,5-d]pyridazine] | 164 nM
11 | CCCOc1ccc(-c2ccc(Cn3cc4nc(-c5cccc(F)c5F)nc-4cn3)c(N)n2)c(C(F)(F)F)c1 [Compound 232, 3-[2-(2,3-Difluoro-phenyl)-imidazo[4,5-d]pyridazin-5-ylmethyl]-6-(4-propoxy-2-trifluoromethyl-phenyl)-pyridin-2-ylamine] | 18 nM
12 | CN(C)Cc1ccc(-c2ccc(Cn3cc4nc(-c5cccc(F)c5F)nc-4cn3)nn2)cc1 [Compound 233, (4-{6-[2-(2,3-Difluoro-phenyl)-imidazo[4,5-d]pyridazin-5-ylmethyl]-pyridazin-3-yl}-benzyl)-dimethyl-amine] | ≥ 50000 nM
13 | CCCOc1ccc(-c2ccc(Cn3cc4nc(-c5cccc(F)c5F)nc-4cn3)cn2)c(C)c1 [Compound 234, 2-(2,3-Difluoro-phenyl)-5-[6-(2-methyl-4-propoxy-phenyl)-pyridin-3-ylmethyl]-5H-imidazo[4,5-d]pyridazine] | 1210 nM
